Experimental data published in patent publication US10259815B2, “Gabaergic ligands and their uses” (UWM Research Foundation, Inc., priority 2015, dated 2019).

Legend:
[1] = tested on: Male NIH Swiss mice; assay: Rotorod assay (ataxia); assay type: in vivo; settings: 30 mg/kg i.p., 30 minutes prior, 4 r.p.m., two minutes
Experimental: Male NIH Swiss mice (n=10) were dosed i.p. with vehicle (1% carboxymethyl cellulose) or one of the test compounds (10 or 30 mg/kg) 30 minutes prior to being tested on the rotorod. Mice were placed on a rod for two minutes at 4 revolutions per minute. […] Mice that fell twice failed the testing.
The rotorod assay (FIG. 5) is used to determine the ataxic effects, generally stemming from the α1 subtype, that compounds have in test subjects. Mice are trained to run on a slow, rotating cylinder for two minutes, and failure to stay on the rod may be due to ataxia. […] Each set of compounds were tested against a vehicle.
Male NIH Swiss mice (n=10/group) were trained on a rotorod (Ugo Basile 7650) at 4 r.p.m. for two minutes per training session prior to testing. On test day, mice were dosed i.p. with either vehicle (1% carboxymethyl cellulose) or one of the test compounds (10 or 30 mg/kg) 30 minutes prior to testing.

[2] = Liver microsomal stability, human; assay type: in vitro ADME; settings: 37° C., 4 μM compound, 30 minutes
Experimental: (§1) In vitro metabolism studies were done in mouse, rat, human, and dogs cells (TABLE 2).
(§2) In vitro liver microsomal studies were completed to measure the stability of the compounds against degradation in various species' liver microsomes.
(§3) Compound was incubated in hepatic microsomes over a 30-minute incubation period at 37° C. Incubations both with and without NADPH (2 mM) were performed in a 96-well plate format. The reaction was initiated with the addition of substrate and was terminated by protein precipitation. All incubations were performed using a final substrate concentration of 4 μM in 50 mM sodium phosphate buffer, pH 7.4. The final organic solvent content was 0.5% acetonitrile and 0.02% DMSO. The amount of enzyme present was fixed at 1.11 mg/mL protein irrespective of the species of microsomes used. Samples were analyzed by LC/MS-MS to determine the percent loss in the NAPDH incubations relative to the NADPH free incubations.

[3] = Liver microsomal stability, mouse; assay type: in vitro ADME; settings: 37° C., 4 μM compound, 30 minutes
Experimental: as §1, §2, §3

[4] = Liver microsomal stability, dog; assay type: in vitro ADME; settings: 37° C., 4 μM compound, 30 minutes
Experimental: as §1, §2, §3

[5] = target: T1, α1, β3, γ2 GABA A receptor (Homo sapiens, UniProt P14867+P18507); assay: FLIPR functional assay, α1 GABAA receptor subtype in HEK-293 cells; assay type: cell-based
T1 construct: host or cells: HEK-293, stably transfected
T1 sequence (P14867 28-456): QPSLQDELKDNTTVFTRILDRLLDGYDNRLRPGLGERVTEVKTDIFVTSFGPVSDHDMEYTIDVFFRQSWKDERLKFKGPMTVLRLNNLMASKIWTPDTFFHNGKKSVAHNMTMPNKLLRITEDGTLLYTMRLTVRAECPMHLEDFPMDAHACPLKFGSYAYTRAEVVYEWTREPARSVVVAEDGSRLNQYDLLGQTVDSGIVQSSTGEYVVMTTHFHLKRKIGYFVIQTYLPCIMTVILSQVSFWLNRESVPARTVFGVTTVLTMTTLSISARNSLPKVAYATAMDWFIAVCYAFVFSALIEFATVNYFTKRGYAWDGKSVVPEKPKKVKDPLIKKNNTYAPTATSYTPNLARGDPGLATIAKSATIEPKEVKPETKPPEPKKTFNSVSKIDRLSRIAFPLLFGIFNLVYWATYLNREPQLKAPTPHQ
T1 sequence (P28472 26-473 partner): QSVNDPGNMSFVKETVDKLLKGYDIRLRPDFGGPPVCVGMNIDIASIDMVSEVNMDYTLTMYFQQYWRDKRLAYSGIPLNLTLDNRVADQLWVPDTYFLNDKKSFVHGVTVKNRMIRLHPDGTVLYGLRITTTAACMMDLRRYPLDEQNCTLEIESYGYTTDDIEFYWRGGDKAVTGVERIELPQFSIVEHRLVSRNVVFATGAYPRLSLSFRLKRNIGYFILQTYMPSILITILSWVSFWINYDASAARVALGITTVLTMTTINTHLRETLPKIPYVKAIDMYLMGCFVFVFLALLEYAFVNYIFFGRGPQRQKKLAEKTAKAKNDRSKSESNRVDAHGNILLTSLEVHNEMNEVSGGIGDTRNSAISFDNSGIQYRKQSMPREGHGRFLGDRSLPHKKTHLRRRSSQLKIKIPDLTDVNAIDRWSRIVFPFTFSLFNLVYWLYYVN
T1 sequence (P18507 40-475): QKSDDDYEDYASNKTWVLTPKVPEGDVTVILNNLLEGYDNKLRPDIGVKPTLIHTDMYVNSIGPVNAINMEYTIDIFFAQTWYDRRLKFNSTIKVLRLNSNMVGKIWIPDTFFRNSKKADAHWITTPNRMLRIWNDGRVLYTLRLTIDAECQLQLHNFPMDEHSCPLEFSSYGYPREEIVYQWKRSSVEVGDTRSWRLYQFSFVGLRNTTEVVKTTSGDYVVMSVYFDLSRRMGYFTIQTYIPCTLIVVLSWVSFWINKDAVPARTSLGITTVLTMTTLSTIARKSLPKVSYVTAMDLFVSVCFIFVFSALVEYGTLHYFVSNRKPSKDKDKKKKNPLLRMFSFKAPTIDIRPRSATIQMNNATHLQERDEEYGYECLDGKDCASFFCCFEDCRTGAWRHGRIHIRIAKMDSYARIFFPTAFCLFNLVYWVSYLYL
Source text: (§4) The FLIPR functional assay is used to determine the EC50 at the α1 and α3 GABAA receptor subtypes. A high EC50 for the α1 subtype would indicate a low chance of adverse effects, including sedation, ataxia, and muscle relaxation. A low α3 EC50 would indicate potential effectiveness as an anxiolytic, antihyperalgesic, and likely an anticonvulsant. See, for example, Liu et al. (Assay. Drug. Dev. Technol. 2008, 6, 781-6) and Joesch et al. (J. Biomol. Screen. 2008, 13, 218-28).
(§5) Compounds tested were synthesized internally and solubilized in DMSO at a 10 mM concentration. GABA was purchase from Sigma (#A2129) and prepared at 100 mM in water.
(§6) HEK-293 cells were stably transfected with the α1, β3, γ2 GABA A receptor subunits (GenBank accession numbers NM_000806.3, NM_000814.5, and NM_198904.1, respectively) or α3, β3, γ2 (NM_000808 for α3) where obtained from ChanTest Co. (Catalog # CT6216 and CT6218, respectively).
(§7) Cells were cultivated in Dulbeco's Modified Eagle's Medium (DMEM, Sigma D5796) supplemented with 10% Fetal Bovine Serum (FBS, Gibco 16000), 0.5 mg/mL Geneticin (Gibco), 0.04 mg/mL Hygromycin B (Gibco), 0.1 mg/mL Zeocin (Gibco) and 20 mM HEPES (Sigma). Cells were grown at 37° C. in a humidified atmosphere of 5% CO2. In the experiments described here frozen cells were used. For this purpose, cells were gown and maintained under confluency during 2-3 weeks and then frozen down at different cell densities using Recovery™ Cell Culture Freezing Medium (Gibco).
(§8) 18 hours prior to the experiment, cells were quickly thawed at 37° C. and seeded on Poly-D-Lys 384 plates (Corning 356663) at a density of 25,000 cells/well and in 25 μL of complete cell medium as described above.
(§9) Membrane potential changes induced by the flux of ions through the receptor were measured as relative fluorescence units (RFU) using the Fluorometric Imaging Plate Reader (FLIPR Tetra®, Molecular Devices) and the FLIPR Membrane Potential Blue Assay kit (Molecular Devices). Prior to the addition of the compounds the medium was removed and cells were loaded with 20 μL of dye prepared in assay buffer composed of Hank's Balanced Salt Solution (HBSS with Ca^+2 and Mg^+2; Gibco 14025) with 20 mM Hepes. After 1 hour of incubation at room temperature (RT), the plate was placed into the FLIPR instrument and experiments were run adding first 10 μL from the 1st addition plate (compound plate) and after a 3 minutes incubation adding 20 μL of the 2nd addition or agonist plate. The response to this last GABA addition was monitored for another 3 minutes. […]
(§10) Data Analysis. The difference between the maximum and the minimum (Max-Min) fluorescence reached during the first addition or read interval and the second read interval were used for data analysis (agonist and potentiation, respectively). […]

[6] = target: T2, α3, β3, γ2 GABA A receptor (Homo sapiens, UniProt P18507+P34903); assay: FLIPR functional assay, α3 GABAA receptor subtype in HEK-293 cells; assay type: cell-based; settings: α3 Binding EC50, FLIPR membrane potential, potentiation of GABA EC20
T2 construct: host or cells: HEK-293, stably transfected
T2 sequence (P34903 29-492): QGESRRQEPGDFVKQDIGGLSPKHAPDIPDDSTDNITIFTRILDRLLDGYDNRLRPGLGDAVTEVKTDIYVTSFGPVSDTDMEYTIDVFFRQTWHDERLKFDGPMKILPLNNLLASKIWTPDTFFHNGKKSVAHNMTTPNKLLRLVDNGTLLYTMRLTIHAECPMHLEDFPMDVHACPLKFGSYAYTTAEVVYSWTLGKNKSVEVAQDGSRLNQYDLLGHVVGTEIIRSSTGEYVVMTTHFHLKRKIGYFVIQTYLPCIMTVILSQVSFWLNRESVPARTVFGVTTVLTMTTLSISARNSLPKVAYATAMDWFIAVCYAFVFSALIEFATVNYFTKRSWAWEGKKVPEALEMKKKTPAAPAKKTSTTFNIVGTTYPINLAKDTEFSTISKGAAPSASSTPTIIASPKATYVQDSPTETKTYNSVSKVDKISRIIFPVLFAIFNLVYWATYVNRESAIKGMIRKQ
T2 sequence (P28472 26-473 partner): as the sequence (P28472 26-473 partner) above
T2 sequence (P18507 40-475): as the sequence (P18507 40-475) above
Source text: as §4, §5, §6, §7, §8, §9, §10

[7] = Liver microsomal stability, rat; assay type: in vitro ADME; settings: 37° C., 4 μM compound, 30 minutes
Experimental: as §1, §2, §3

[8] = tested on: Sprague Dawley male rats; assay: Mechanical hyperalgesia (von Frey) in CFA-induced inflammatory pain rat model; assay type: in vivo
Experimental: Raw data (paw withdrawal threshold, expressed in g of von Frey filament) was converted to a maximal possible effect value according the following equation: % MPE=[(test threshold(g)−control threshold(g)/(pre-CFA threshold−control threshold)]×100.
Complete Freund's adjuvant (CFA) contains Mycobacterium butyricum, inducing inflammation and an increase in paw thickness. 0.1 mL of CFA was injected in the right hind paw of Sprague Dawley male rats under isoflurane anaesthesia.
Mechanical hyperalgesia. Mechanical hyperalgesia was measured 3 days after CFA treatment. Rats (n=6) were placed in elevated boxes with a mesh floor. Von Frey filaments (expressed in g) were applied perpendicularly to the hindpaws, starting with the lowest filament (1.4 g) then increased until hindpaw withdrawal was observed. After each measurement, rats received the next dose of drug (every 20 min) until the maximum threshold (26 g) was observed. For the antagonist study, rats were pretreated with the benzodiazepine site antagonist flumazenil (10 min) and then received the next dose of drug (every 20 min) until the pre-CFA threshold was observed.
Drugs. The following drugs were used: HZ166, KRM-II-18B, and KRM-II-81, and were dissolved in a mixture containing 20% Dimethyl sulfoxide (DMSO), 10% Emulphor-620 (Rhodia Inc.), and 70% of 0.9% saline. Flumazenil (purchased from Cayman Chemical Company, MI) was dissolved in a mixture containing 10% ethanol, 40% propylene glycol, and 50% sterile water. Midazolam (Akorn, Inc.) was dissolved in 0.9% saline. Doses were expressed as the weight of the drug in milligrams per kilogram of body weight and drugs were administered intraperitoneally.

[9] = tested on: Male Sprague-Dawley rats; assay: von Frey filament test in spinal nerve ligated (SNL) rats; assay type: in vivo
Experimental: FIG. 11 is a graph of time versus withdrawal threshold for KRM-II-81, Gabapentin, and vehicle, showing the effect of KRM-II-81 on antihyperalgesia in the von Frey filament assay. Male Sprague-Dawley rats (n=5) were dosed i.p. either vehicle, KRM-II-81 (30 mg/kg), or gabapentin (50 mg/kg) and tested in the von Frey filament assay after undergoing SNL 90 days prior. Results were analyzed using ANOVA (Dunnett's test: *P<0.05).
The von Frey filament test is used to test for antihyperalgesia, or an increased sensitivity to pain. […] The von Frey filaments are used to apply pressure to the forelimbs of test subjects at set amounts. When pressure becomes too great, the forelimb is withdrawn and the amount of force applied recorded. The spinal nerve ligation induced hyperalgesia, reducing the amount of force a limb can take before being withdrawn.
Test compounds were given to test the effectiveness of combating the hyperalgesic effect of SNL. Male Sprague-Dawley rats went through SNL at least 90 days prior to the von Frey testing. Rats were first tested without given an injection to determine a baseline. Following baseline establishment, rats (n=5 for all groups) were dosed i.p. with vehicle (1% carboxymethyl cellulose), KRM-II-81 (30 mg/kg), or gabapentin (50 mg/kg). Subjects were then tested every hour for four hours to determine the antihyperalgesic effect of the test compounds. For testing, pressure using von Frey filaments was applied to the forelimb of the rat. Pressure was increased until the limb was withdrawn, and the amount of pressure was recorded.

In the case of `Brc1ccc2c(c1)C(c1ccccc1)=NCc1c(-c3cnco3)ncn1-2`, the melting point is reported as 225 to 227 °C.

`Cc1ncoc1-c1ncn2c1CN=C(c1ccccn1)c1cc(Br)ccc1-2` gave a melting point of 228 to 230 °C.

For `Cc1ncoc1-c1ncn2c1CN=C(c1ccccc1)c1cc(Br)ccc1-2`, the melting point was 236 to 238 °C.

Compound `Cc1ncoc1-c1ncn2c1CN=C(c1ccccc1F)c1cc(Br)ccc1-2` has a melting point of 138 to 140 °C.

`C[Si](C)(C)C#Cc1ccc2c(c1)C(c1ccccn1)=NCc1c(-c3cnco3)ncn1-2` gave a melting point of 208 to 210 °C.

In the case of `Cc1ncoc1-c1ncn2c1CN=C(c1ccccc1)c1cc(C#C[Si](C)(C)C)ccc1-2`, the melting point is reported as 130 to 132 °C.

For `Cc1ncoc1-c1ncn2c1CN=C(c1ccccc1F)c1cc(C#C[Si](C)(C)C)ccc1-2`, the melting point was 209 to 211 °C.

With `C#Cc1ccc2c(c1)C(c1ccccn1)=NCc1c(-c3ocnc3C)ncn1-2` the melting point was 209 to 211 °C.

`C#Cc1ccc2c(c1)C(c1ccccc1)=NCc1c(-c3ocnc3C)ncn1-2` gave a melting point of 228 to 230 °C.

`C#Cc1ccc2c(c1)C(c1ccccc1F)=NCc1c(-c3ocnc3C)ncn1-2` gave a melting point of 145 to 147 °C.

With `C#Cc1ccc2c(c1)C(c1ccccc1)=NCc1c(-c3cnco3)ncn1-2` [KRM-II-82, 5-(8-Ethynyl-6-phenyl-4H-benzo[f]imidazo[1,5-a][1,4]diazepin-3-yl)oxazole] the “rotorod performance at 30 mg/kg” value [1] was “failed multiple times”, the “Human Liver microsome stability (reported in % remaining)” value [2] was 74 % remaining and the “Mouse Liver microsome stability (reported in % remaining)” value [3] was 73 % remaining. For the same compound, the “Dog Liver microsome stability (reported in % remaining)” value [4] was 86 % remaining, the EC50 [5] was > 20000 nM and the EC50 [6] was 32.1 nM. The “Rat Liver microsome stability (reported in % remaining)” value [7] was 72 % remaining.

In the case of `Fc1ccccc1C1=NCc2c(-c3cnco3)ncn2-c2ccc(Br)cc21` [SH-I-085, 5-(8-Bromo-6-(2-fluorophenyl)-4H-benzo[f]imidazo[1,5-a][1,4]diazepin-3-yl)oxazole], the “Human Liver microsome stability (reported in % remaining)” value [2] is reported as 62 % remaining, the melting point is reported as 190 to 192 °C and the “Mouse Liver microsome stability (reported in % remaining)” value [3] is reported as 67 % remaining. The “Dog Liver microsome stability (reported in % remaining)” value [4] was 77 % remaining, the EC50 [5] was > 20000 nM and the EC50 [6] was 24.9 nM. For the same compound, the “Rat Liver microsome stability (reported in % remaining)” value [7] was 61 % remaining.

With `CCOC(=O)c1ncn2c1CN(C)C(=O)c1cc(F)ccc1-2` [flumazenil, reference compound] the “shift of PAM dose-effect curves by antagonist pretreatment” value ([8]; flumazenil pretreatment 10 min) was “shifted the dose-effect curves of PAMs rightward”.

In the case of `NCC1(CC(=O)O)CCCCC1` [gabapentin, reference compound], the “antihyperalgesic activity, von Frey after SNL” value ([9]; KRM-II-81 30 mg/kg, gabapentin 50 mg/kg i.p.) is reported as “active as antihyperalgesics” and the “pain threshold (force before removing paw)” value ([9]; from 1-2 hours, vehicle ˜5 g) is reported as ~12 g.

With `Cc1ncc2n1-c1ccc(Cl)cc1C(c1ccccc1F)=NC2` [midazolam, reference compound] the “mechanical hyperalgesia in CFA-induced inflammatory pain” value ([8]; cumulative i.p. dosing, 3 days after CFA) was “dose-dependently attenuated mechanical hyperalgesia”.
